Measurements: US8178506B2, “Oligomeric compounds and compositions for use in modulation of small non-coding RNAs” (Regulus Therapeutics Inc., priority 2003, dated 2012)
In the oligonucleotide strings, read from the 5' end, every base follows the letter of its sugar. An asterisk marks phosphorothioate; unmarked linkages are phosphodiester. Other units and linkages are bracketed, terminal groups are in braces. A string of capitals states the bases alone. e = 2'-O-(2-methoxyethyl) (MOE); [5mC] = 5-methylcytosine; d = 2'-deoxy (DNA)

Legend:
follistatin = assay: Follistatin mRNA expression in HepG2 cells; type: cell-based, human; conditions: for Follistatin mRNA: four hours, UTC = 100; for Follistatin mRNA expression: Experiment 2, insulin treated: HepG2 cells transfected with oligomeric compound, 1 nM insulin for four hours, UTC + 1 nM insulin = 100
HeLa cells = assay: Cell cycle assay in HeLa cells; type: cell-based, human; conditions: HeLa cells; for % cells in cell cycle phase: G1 / % cells in cell cycle phase: G2/M / % cells in cell cycle phase: S / % cells in cell cycle phase: aneuploid / % cells in cell cycle phase: subG1: 48 hours after treatment, relative to untreated control (UTC=100)
[1] = Experiment 1, basal (no insulin), HepG2, 100 nM oligomeric compound
[2] = Experiment 2, 1 nM insulin treated, HepG2, 100 nM oligomeric compound
[3] = HepG2 cells, Experiment 1, basal (no insulin)
[4] = 150 nM oligomeric compound, 24 hours, relative to untreated control (UTC = 100)
[5] = 150 nM, 48 hours, relative to untreated control

327913 (antisense eA*eA*e[5mC]*e[5mC]*eG*eA*eT*eT*eT*e[5mC]*eA*eA*eA*eT*eG*eG*eT*eG*e[5mC]*eT*eA*eG) [compound 327913]
Follistatin (% UTC) (follistatin; [1]): 115 % UTC | Follistatin (% UTC) (follistatin; [2]): 123 % UTC

327893 (antisense eA*eA*e[5mC]*e[5mC]*eA*e[5mC]*eA*e[5mC]*eA*eA*e[5mC]*e[5mC]*eT*eA*e[5mC]*eT*eA*e[5mC]*e[5mC]*eT*e[5mC]*eA) [compound 327893]
Follistatin mRNA (follistatin; [3]): 93

327918 (antisense e[5mC]*eT*eA*eG*eT*eA*e[5mC]*eA*eT*e[5mC]*eA*eT*e[5mC]*eT*eA*eT*eA*e[5mC]*eT*eG*eT*eA) [compound 327918]
Follistatin mRNA expression (follistatin): 76 | Follistatin mRNA (follistatin; [3]): 75

341804 (antisense ATCTGCACTGTCAGCACTTT; all 2'-MOE, all phosphorothioate, methylation of C not given here) [compound 341804]
Follistatin mRNA (follistatin; [3]): 63

327887 (antisense eG*e[5mC]*eG*eA*e[5mC]*e[5mC]*eA*eT*eG*eG*e[5mC]*eT*eG*eT*eA*eG*eA*e[5mC]*eT*eG*eT*eT*eA) [compound 327887]
Follistatin mRNA (follistatin; [3]): 113

327925 (antisense eT*eA*eG*e[5mC]*eT*eG*eG*eT*eT*eG*eA*eA*eG*eG*eG*eG*eA*e[5mC]*e[5mC]*eA*eA) [compound 327925]
Follistatin (% UTC) (follistatin; [1]): 110 % UTC | Follistatin (% UTC) (follistatin; [2]): 148 % UTC

327941 (antisense eA*eA*e[5mC]*e[5mC]*e[5mC]*eA*e[5mC]*e[5mC]*eG*eA*e[5mC]*eA*eG*e[5mC]*eA*eA*eT*eG*eA*eA*eT*eG*eT*eT) [compound 327941]
Follistatin (% UTC) (follistatin; [1]): 80 % UTC | Follistatin (% UTC) (follistatin; [2]): 68 % UTC

327916 (antisense eT*eG*eG*e[5mC]*eA*eT*eT*e[5mC]*eA*e[5mC]*e[5mC]*eG*e[5mC]*eG*eT*eG*e[5mC]*e[5mC]*eT*eT*eA*eA) [compound 327916]
Follistatin mRNA expression (follistatin): 98 | Follistatin mRNA (follistatin; [3]): 108

327899 (antisense e[5mC]*eA*eG*eT*eG*eA*eA*eT*eT*e[5mC]*eT*eA*e[5mC]*e[5mC]*eA*eG*eT*eG*e[5mC]*e[5mC]*eA*eT*eA) [compound 327899]
Follistatin mRNA (follistatin; [3]): 66

341805 (antisense ACCCTTATCAGTTCTCCGTCCA; all 2'-MOE, all phosphorothioate, methylation of C not given here) [compound 341805]
Follistatin mRNA (follistatin; [3]): 63

328114 (antisense eA*eA*eT*e[5mC]*eT*e[5mC]*eA*eT*eT*eT*eT*e[5mC]*eA*eT*eA*e[5mC]*eT*eT*eG*e[5mC]*eA) [compound 328114]
Follistatin mRNA expression (follistatin): 81

328691 (e[5mC]*e[5mC]*e[5mC]*e[5mC]*eA*dT*d[5mC]*dT*dT*dA*dG*d[5mC]*dA*dT*d[5mC]*eT*eA*eA*eG*eG) [compound 328691]
Follistatin (% UTC) (follistatin; Experiment 3, basal (no insulin), HepG2 cells, 48 hours post-transfection): 93 % UTC | Follistatin (% UTC) (follistatin; Experiment 4, insulin-sensitization: HepG2 cells treated with 1 nM insulin for four hours, 48 h post-transfection, mRNA by real-time PCR): 104 % UTC

327920 (antisense eG*eA*eG*eA*e[5mC]*e[5mC]*e[5mC]*eA*eG*eT*eA*eG*e[5mC]*e[5mC]*eA*eG*eA*eT*eG*eT*eA*eG*e[5mC]*eT) [compound 327920]
Follistatin mRNA expression (follistatin): 102 | Follistatin mRNA (follistatin; [3]): 99

327895 (antisense eA*e[5mC]*eA*eA*eA*e[5mC]*eA*e[5mC]*e[5mC]*eA*eT*eT*eG*eT*e[5mC]*eA*e[5mC]*eA*e[5mC]*eT*e[5mC]*e[5mC]*eA) [compound 327895]
Follistatin mRNA (follistatin; [3]): 83

341803 (antisense CCACACACTTCCTTACATTCCA; all 2'-MOE, all phosphorothioate, methylation of C not given here) [compound 341803]
Follistatin mRNA (follistatin; [3]): 68

327900 (antisense e[5mC]*eT*eG*e[5mC]*e[5mC]*eT*eG*eT*e[5mC]*eT*eG*eT*eG*e[5mC]*e[5mC]*eT*eG*e[5mC]*eT*eG*eT) [compound 327900]
Follistatin mRNA (follistatin; [3]): 111

338664 (antisense e[5mC]*eA*eG*eA*e[5mC]*eT*e[5mC]*e[5mC]*e[5mC]*eA*eA*e[5mC]*eT*eG*eA*e[5mC]*e[5mC]*eA*eG*eA) [compound 338664]
Follistatin (% UTC) (follistatin; [1]): 93 % UTC | Follistatin (% UTC) (follistatin; [2]): 84 % UTC

341806 (antisense GCCAATATTTCTGTGCTGCTA; all 2'-MOE, all phosphorothioate, methylation of C not given here) [compound 341806]
Follistatin mRNA (follistatin; [3]): 75

327923 (antisense eG*eA*eA*eA*eG*eA*eG*eA*e[5mC]*e[5mC]*eG*eG*eT*eT*e[5mC]*eA*e[5mC]*eT*eG*eT*eG*eA) [compound 327923]
Follistatin mRNA expression (follistatin): 106 | Follistatin mRNA (follistatin; [3]): 86

327910 (antisense eT*eG*eA*eT*eA*eG*e[5mC]*e[5mC]*e[5mC]*eT*eG*eT*eA*e[5mC]*eA*eA*eT*eG*e[5mC]*eT*eG*e[5mC]*eT) [compound 327910]
% cells aneuploid (HeLa cells; [4]): 73% | % cells in cell cycle phase G1 (HeLa cells; [4]): 154% | % cells in cell cycle phase G2/M (HeLa cells; [4]): 118% | % cells in cell cycle phase S (HeLa cells; [4]): 42% | % cells in cell cycle phase subG1 (HeLa cells; [4]): 174% | % cells in cell cycle phase: G1 (HeLa cells; 150 nM oligomeric compound): 99% | % cells in cell cycle phase: G2/M (HeLa cells; 150 nM oligomeric compound): 111% | % cells in cell cycle phase: S (HeLa cells; 150 nM oligomeric compound): 91% | % cells in cell cycle phase: aneuploid (HeLa cells; 150 nM oligomeric compound): 92% | % cells in cell cycle phase: subG1 (HeLa cells; 150 nM oligomeric compound): 53%

328136 (eA*eA*e[5mC]*eT*eA*e[5mC]*eT*eT*e[5mC]*e[5mC]*eA*eG*eA*eG*e[5mC]*eA*eG*eG*eT*eG*eA; anti-miR) [compound 328136]
% cells aneuploid (HeLa cells; [4]): 51% | % cells in cell cycle phase G1 (HeLa cells; [4]): 125% | % cells in cell cycle phase G2/M (HeLa cells; [4]): 88% | % cells in cell cycle phase S (HeLa cells; [4]): 81% | % cells in cell cycle phase subG1 (HeLa cells; [4]): 330% | % cells in cell cycle phase: G1 (HeLa cells; 150 nM oligomeric compound): 83% | % cells in cell cycle phase: G2/M (HeLa cells; 150 nM oligomeric compound): 113% | % cells in cell cycle phase: S (HeLa cells; 150 nM oligomeric compound): 133% | % cells in cell cycle phase: aneuploid (HeLa cells; 150 nM oligomeric compound): 85% | % cells in cell cycle phase: subG1 (HeLa cells; 150 nM oligomeric compound): 140%

327906 (antisense eT*e[5mC]*eA*eT*eA*eG*e[5mC]*e[5mC]*e[5mC]*eT*eG*eT*eA*e[5mC]*eA*eA*eT*eG*e[5mC]*eT*eG*e[5mC]*eT) [compound 327906]
% cells aneuploid (HeLa cells; [4]): 65% | % cells in cell cycle phase G1 (HeLa cells; [4]): 153% | % cells in cell cycle phase G2/M (HeLa cells; [4]): 107% | % cells in cell cycle phase S (HeLa cells; [4]): 47% | % cells in cell cycle phase subG1 (HeLa cells; [4]): 228% | % cells in cell cycle phase: G1 (HeLa cells; 150 nM oligomeric compound): 100% | % cells in cell cycle phase: G2/M (HeLa cells; 150 nM oligomeric compound): 103% | % cells in cell cycle phase: S (HeLa cells; 150 nM oligomeric compound): 98% | % cells in cell cycle phase: aneuploid (HeLa cells; 150 nM oligomeric compound): 83% | % cells in cell cycle phase: subG1 (HeLa cells; 150 nM oligomeric compound): 57%

328119 (antisense eA*eA*eT*eA*eA*e[5mC]*eA*e[5mC]*eA*e[5mC]*eA*eT*e[5mC]*e[5mC]*eA*e[5mC]*eT*eT*eT*eA*eA) [compound 328119]
% cells aneuploid (HeLa cells; [4]): 83% | % cells in cell cycle phase G1 (HeLa cells; [4]): 100% | % cells in cell cycle phase G2/M (HeLa cells; [4]): 112% | % cells in cell cycle phase S (HeLa cells; [4]): 94% | % cells in cell cycle phase subG1 (HeLa cells; [4]): 75% | % cells in cell cycle phase: G1 (HeLa cells; 150 nM oligomeric compound): 75% | % cells in cell cycle phase: G2/M (HeLa cells; 150 nM oligomeric compound): 124% | % cells in cell cycle phase: S (HeLa cells; 150 nM oligomeric compound): 145% | % cells in cell cycle phase: aneuploid (HeLa cells; 150 nM oligomeric compound): 81% | % cells in cell cycle phase: subG1 (HeLa cells; 150 nM oligomeric compound): 767%

327956 (antisense e[5mC]*eA*e[5mC]*eA*eG*eT*eT*eG*e[5mC]*e[5mC]*eA*eG*e[5mC]*eT*eG*eA*eG*eA*eT*eT*eA) [compound 327956]
% cells aneuploid (HeLa cells; [4]): 61% | % cells in cell cycle phase G1 (HeLa cells; [4]): 124% | % cells in cell cycle phase G2/M (HeLa cells; [4]): 120% | % cells in cell cycle phase S (HeLa cells; [4]): 68% | % cells in cell cycle phase subG1 (HeLa cells; [4]): 120% | % cells in cell cycle phase: G1 (HeLa cells; 150 nM oligomeric compound): 91% | % cells in cell cycle phase: G2/M (HeLa cells; 150 nM oligomeric compound): 121% | % cells in cell cycle phase: S (HeLa cells; 150 nM oligomeric compound): 106% | % cells in cell cycle phase: aneuploid (HeLa cells; 150 nM oligomeric compound): 110% | % cells in cell cycle phase: subG1 (HeLa cells; 150 nM oligomeric compound): 184%

340350 (antisense TGCTCAATAAATACCCGTTGAA; all 2'-MOE, all phosphorothioate, methylation of C not given here) [compound 340350]
% cells aneuploid (HeLa cells; [4]): 94% | % cells in cell cycle phase G1 (HeLa cells; [4]): 183% | % cells in cell cycle phase G2/M (HeLa cells; [4]): 104% | % cells in cell cycle phase S (HeLa cells; [4]): 54% | % cells in cell cycle phase subG1 (HeLa cells; [4]): 218% | % cells in cell cycle phase: G1 (HeLa cells; 150 nM oligomeric compound): 76% | % cells in cell cycle phase: G2/M (HeLa cells; 150 nM oligomeric compound): 134% | % cells in cell cycle phase: S (HeLa cells; 150 nM oligomeric compound): 126% | % cells in cell cycle phase: aneuploid (HeLa cells; 150 nM oligomeric compound): 125% | % cells in cell cycle phase: subG1 (HeLa cells; 150 nM oligomeric compound): 1144% | % cells in cell cycle phase G1 (HeLa cells; [5]): 101% | % cells in cell cycle phase G2/M (HeLa cells; [5]): 112% | % cells in cell cycle phase S (HeLa cells; [5]): 94% | % cells in cell cycle phase aneuploid (HeLa cells; [5]): 177% | % cells in cell cycle phase subG1 (HeLa cells; [5]): 132%
